Data: patent US11834424B2, “Compounds useful as chaperone-mediated autophagy modulators” (ALBERT EINSTEIN COLLEGE OF MEDICINE, priority 2018, dated 2023)
“And” between values parts separate entries of the source, which are not always exact repeats. Equal entries are not always repeated. “Also recorded” adds a separate entry of the source. Where two headings read alike, the source gives them in different places.

Experiment: Pharmacokinetics (plasma and brain levels) in ICR (CD-1) mice
Type: in vivo
Details: i.v. 1 mg/kg; for Conc. in brain, individual animal / concentration at 0.083 h / concentration at 0.25 h / concentration at 0.5 h / concentration at 1 h / concentration at 2 h / concentration at 4 h / concentration at 8 h: mouse brain; for Conc. in plasma, individual animal: mouse plasma; for Brain/Plasma ratio, individual animal / concentration at 0.083 h / concentration at 0.25 h / concentration at 0.5 h / concentration at 1 h / concentration at 2 h / concentration at 4 h / concentration at 8 h: mouse; for concentration at 0.083 h / concentration at 0.25 h / concentration at 0.5 h / concentration at 1 h / concentration at 2 h / concentration at 4 h / concentration at 8 h: male, ICR (CD-1), brain, iv
Procedure: ICR (CD-1) male mice were fasted at least three horns and water was available ad libitum before the study. Animals were housed in a controlled environment, target conditions: temperature 18 to 29° C., relative humidity 30 to 70%. Temperature and relative humidity was monitored daily. An electronic time controlled lighting system was used to provide a 12 h light/12 h dark cycle. 3 mice for each indicated time point. ICR (CD-1) mice were administered CA77 at 1 mg/kg i.v. and 30 mg/kg p.o. or CA77.1 at 1 mg/kg i.v. (FIG. 2A) and 10 mg/kg p.o. (FIG. 2B). Three (3) mice were included in each dosage and time group. Mice were sacrificed and plasma and brains were obtained at 0.083, 0.25, 0.50, 1.0, 2.0, 4.0, 8.0, and 24.0 hours after administration and drug concentration determined using LC-MS/MS. Brains were removed, homogenized with a tissue homogenizer in cold 5% w/v BSA in phosphate buffer saline (PBS). A 100 microliter aliquots of brain samples were dispensed in to glass culture tubes and mixed with ethyl acetate (800 μl), vortexed, and centrifuged. The organic layer was transferred to a fresh culture tube, dried under nitrogen, and reconstituted in mobile phase for quantitation. Pharmacokinetic parameters were determined by standard methods using Phoenix WinNonlin 6.3 software.
Tables 3A and 3B provide the concentrations of CA77 in ICR (CD-1) mouse plasma (3A) and mouse brain (3B) following i.v. administration of 1 mg/kg CA77. Table 3C provides the brain/plasma ratio of CA77 following i.v. administration of 1 mg/kg CA77. Shaded cells indicate data not included in statistics due to aberrant value. BLQ=Below Limit of Quantitation.
Tables 5A and 5B provide the concentrations of CA77.1 in ICR (CD-1) mouse plasma (5A) and mouse brain (5B) following i.v. administration of 1 mg/kg CA77.1. Table 5C provides the brain/plasma ratio of CA77.1 following i.v. administration of 1 mg/kg CA77.1. The plasma and brain pharmacokinetic parameters for CA77.1 are provided in Table 6. *—cells contain data not present in the statistics.

CL obs (ICR (CD-1) mice): 53 mL/min/kg
VSS_obs (ICR (CD-1) mice): 6.463 L/kg
Conc. in brain, individual animal (0.083 h, 1 mg/kg): 1171 ng/g and 970 ng/g
Conc. in brain, individual animal (0.25 h, 1 mg/kg): 813 ng/g and 691 ng/g
Conc. in brain, individual animal (0.50 h, 1 mg/kg): 677 ng/g and 1083 ng/g
Conc. in brain, individual animal (1.00 h, 1 mg/kg): 628 ng/g and 781 ng/g
Conc. in brain, individual animal (2.00 h, 1 mg/kg): 269 ng/g and 186 ng/g
Conc. in brain, individual animal (4.00 h, 1 mg/kg): 13.6 ng/g and 24.9 ng/g
Conc. in brain, individual animal (8.00 h, 1 mg/kg): 3.31 ng/g and 3.66 ng/g
Conc. in brain, individual animal (24.0 h): 0 ng/g
Conc. in plasma, individual animal (0.083 h, 1 mg/kg): 178 ng/mL and 214 ng/mL
Conc. in plasma, individual animal (0.25 h, 1 mg/kg): 152 ng/mL and 104 ng/mL
Conc. in plasma, individual animal (0.50 h, 1 mg/kg): 247 ng/mL and 100 ng/mL and 481 ng/mL
Conc. in plasma, individual animal (1.00 h, 1 mg/kg): 79.3 ng/mL and 85.0 ng/mL
Conc. in plasma, individual animal (2.00 h, 1 mg/kg): 30.8 ng/mL and 38.5 ng/mL and 69.4 ng/mL
Conc. in plasma, individual animal (4.00 h, 1 mg/kg): 3.31 ng/mL and 3.33 ng/mL and 10.2 ng/mL
Conc. in plasma, individual animal (8.00 h, 1 mg/kg): 1.43 ng/mL and 1.42 ng/mL
Conc. in plasma, individual animal (24.0 h, 1 mg/kg): *7.61 ng/mL; also recorded: *16.6 ng/mL
Brain/Plasma ratio, individual animal (0.083 h, 1 mg/kg): 6.57 and 4.53
Brain/Plasma ratio, individual animal (0.25 h, 1 mg/kg): 5.35 and 6.67
Brain/Plasma ratio, individual animal (0.50 h, 1 mg/kg): 2.74 and 6.77 and 2.25
Brain/Plasma ratio, individual animal (1.00 h, 1 mg/kg): 7.92 and 9.19
Brain/Plasma ratio, individual animal (2.00 h, 1 mg/kg): 8.97 and 7.00 and 2.68
Brain/Plasma ratio, individual animal (4.00 h, 1 mg/kg): 5.48 and 4.09 and 2.44
Brain/Plasma ratio, individual animal (8.00 h, 1 mg/kg): 2.31 and 2.59
concentration at 0.083 h (1 mg/kg, 0.083 h, read-out: Conc. in brain, Mean): 1060 ng/g
concentration at 0.083 h (1 mg/kg, 0.083 h, read-out: Conc. in brain, individual animal): 1030 ng/g
concentration at 0.25 h (1 mg/kg, 0.25 h, read-out: Conc. in brain, Mean): 789 ng/g
concentration at 0.25 h (1 mg/kg, 0.25 h, read-out: Conc. in brain, individual animal): 864 ng/g
concentration at 0.5 h (1 mg/kg, 0.50 h, read-out: Conc. in brain, Mean): 812 ng/g
concentration at 0.5 h (1 mg/kg, 0.50 h, read-out: Conc. in brain, individual animal): 677 ng/g
concentration at 1 h (1 mg/kg, 1.00 h, read-out: Conc. in brain, Mean): 669 ng/g
concentration at 1 h (1 mg/kg, 1.00 h, read-out: Conc. in brain, individual animal): 597 ng/g
concentration at 2 h (1 mg/kg, 2.00 h, read-out: Conc. in brain, Mean): 244 ng/g
concentration at 2 h (1 mg/kg, 2.00 h, read-out: Conc. in brain, individual animal): 276 ng/g
concentration at 4 h (1 mg/kg, 4.00 h, read-out: Conc. in brain, Mean): 19 ng/g
concentration at 4 h (1 mg/kg, 4.00 h, read-out: Conc. in brain, individual animal): 18.2 ng/g
concentration at 8 h (1 mg/kg, 8.00 h, read-out: Conc. in brain, Mean): 4 ng/g
concentration at 8 h (1 mg/kg, 8.00 h, read-out: Conc. in brain, individual animal): 4.92 ng/g
Compound: CC(=O)Nc1ccc(-c2cnc3cc(Cl)ccc3n2)cc1 [CA77.1, N-(4-(6-chloroquinoxalin-2-yl)phenyl)acetamide]
